Calls of active or inactive are those of the source. No cut-off for these calls is given here.
Columns and labels:
[1] = system: LoVo; experiment: Antiproliferative activity against human LoVo cells assessed as inhibition of cell growth incubated for 72 hrs by celltiter-glo assay; format: functional, cell-based
[2] = target: Eukaryotic translation initiation factor 2-alpha kinase 3 (Homo sapiens, UniProt Q9NZJ5); experiment: Inhibition of recombinant PERK (unknown origin)
[3] = Volume of distribution at steady state in Athymic nu-nu mouse at 10 mg/kg, iv measured upto 24 hrs by LC-MS/MS analysis; format: ADME, organism-based; details: in vivo, read-out: Vdss
[4] = target: Serine/threonine-protein kinase PLK3 (Homo sapiens, UniProt Q9H4B4); experiment: Inhibition of recombinant PLK3 (unknown origin)
Sequence of Serine/threonine-protein kinase PLK3 (Q9H4B4 whole entry): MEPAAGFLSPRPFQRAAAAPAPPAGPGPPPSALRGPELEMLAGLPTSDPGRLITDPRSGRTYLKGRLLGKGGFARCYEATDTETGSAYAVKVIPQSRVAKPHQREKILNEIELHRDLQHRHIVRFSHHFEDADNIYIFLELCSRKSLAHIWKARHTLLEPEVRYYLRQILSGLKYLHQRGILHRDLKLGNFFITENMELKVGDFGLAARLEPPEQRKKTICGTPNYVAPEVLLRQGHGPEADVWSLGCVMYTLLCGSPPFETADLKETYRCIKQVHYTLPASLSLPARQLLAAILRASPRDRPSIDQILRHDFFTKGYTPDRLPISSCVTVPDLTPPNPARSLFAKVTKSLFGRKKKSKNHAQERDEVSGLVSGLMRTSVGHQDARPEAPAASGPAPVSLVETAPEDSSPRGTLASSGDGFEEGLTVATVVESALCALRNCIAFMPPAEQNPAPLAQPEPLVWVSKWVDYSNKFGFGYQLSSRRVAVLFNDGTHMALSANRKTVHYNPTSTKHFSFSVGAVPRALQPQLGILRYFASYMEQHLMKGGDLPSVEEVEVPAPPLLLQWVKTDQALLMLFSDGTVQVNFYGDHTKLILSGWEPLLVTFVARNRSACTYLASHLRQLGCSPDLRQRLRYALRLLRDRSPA

[5] = system: SW948; experiment: Antiproliferative activity against human SW948 cells assessed as inhibition of cell growth incubated for 72 hrs by celltiter-glo assay; format: functional, cell-based; details: SW948, 72 h
[6] = target: Serine/threonine-protein kinase Nek6 (Homo sapiens, UniProt Q9HC98); experiment: Inhibition of recombinant NEK6 (unknown origin) preincubated for 60 mins
Sequence of Serine/threonine-protein kinase Nek6 (Q9HC98 whole entry): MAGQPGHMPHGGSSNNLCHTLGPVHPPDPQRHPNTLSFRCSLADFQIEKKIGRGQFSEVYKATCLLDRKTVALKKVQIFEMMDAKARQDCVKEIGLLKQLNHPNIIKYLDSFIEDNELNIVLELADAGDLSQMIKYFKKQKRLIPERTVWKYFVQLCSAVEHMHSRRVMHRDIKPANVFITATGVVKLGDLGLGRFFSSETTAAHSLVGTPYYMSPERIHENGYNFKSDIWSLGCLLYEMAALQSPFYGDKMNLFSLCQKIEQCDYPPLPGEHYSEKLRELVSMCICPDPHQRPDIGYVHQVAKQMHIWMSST

[7] = system: HeLa; experiment: Antiproliferative activity against human HeLa cells assessed as inhibition of cell growth incubated for 72 hrs by celltiter-glo assay; format: functional, cell-based
[8] = system: NCI-H23; experiment: Antiproliferative activity against human NCI-H23 cells assessed as inhibition of cell growth incubated for 72 hrs by celltiter-glo assay; format: functional, cell-based; details: NCI-H23, 72 h
[9] = target: Tyrosine-protein kinase Lck (Homo sapiens, UniProt P06239); experiment: Inhibition of recombinant LCK (unknown origin)
Sequence of Tyrosine-protein kinase Lck (P06239 whole entry): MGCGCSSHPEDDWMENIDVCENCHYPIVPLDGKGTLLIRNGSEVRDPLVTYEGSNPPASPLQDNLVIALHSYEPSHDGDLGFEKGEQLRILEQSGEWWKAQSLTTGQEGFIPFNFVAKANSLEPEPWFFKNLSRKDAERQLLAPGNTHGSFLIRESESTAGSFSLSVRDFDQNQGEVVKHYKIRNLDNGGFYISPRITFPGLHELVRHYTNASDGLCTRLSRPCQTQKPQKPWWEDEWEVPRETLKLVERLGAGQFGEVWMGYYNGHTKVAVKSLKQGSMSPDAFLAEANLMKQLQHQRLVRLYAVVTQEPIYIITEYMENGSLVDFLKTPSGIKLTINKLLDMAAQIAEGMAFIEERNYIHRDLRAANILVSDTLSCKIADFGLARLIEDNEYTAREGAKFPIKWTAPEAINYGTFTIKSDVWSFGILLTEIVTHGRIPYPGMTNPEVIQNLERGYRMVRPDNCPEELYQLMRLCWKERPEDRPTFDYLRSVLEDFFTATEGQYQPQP

[10] = system: MOLT-4; experiment: Antiproliferative activity against human MOLT-4 cells assessed as inhibition of cell growth incubated for 72 hrs by celltiter-glo assay; format: functional, cell-based; details: MOLT-4, 72 h
[11] = target: Protein kinase C beta type (Homo sapiens, UniProt P05771); experiment: Inhibition of recombinant PKCbeta (unknown origin)
Sequence of Protein kinase C beta type (P05771 whole entry): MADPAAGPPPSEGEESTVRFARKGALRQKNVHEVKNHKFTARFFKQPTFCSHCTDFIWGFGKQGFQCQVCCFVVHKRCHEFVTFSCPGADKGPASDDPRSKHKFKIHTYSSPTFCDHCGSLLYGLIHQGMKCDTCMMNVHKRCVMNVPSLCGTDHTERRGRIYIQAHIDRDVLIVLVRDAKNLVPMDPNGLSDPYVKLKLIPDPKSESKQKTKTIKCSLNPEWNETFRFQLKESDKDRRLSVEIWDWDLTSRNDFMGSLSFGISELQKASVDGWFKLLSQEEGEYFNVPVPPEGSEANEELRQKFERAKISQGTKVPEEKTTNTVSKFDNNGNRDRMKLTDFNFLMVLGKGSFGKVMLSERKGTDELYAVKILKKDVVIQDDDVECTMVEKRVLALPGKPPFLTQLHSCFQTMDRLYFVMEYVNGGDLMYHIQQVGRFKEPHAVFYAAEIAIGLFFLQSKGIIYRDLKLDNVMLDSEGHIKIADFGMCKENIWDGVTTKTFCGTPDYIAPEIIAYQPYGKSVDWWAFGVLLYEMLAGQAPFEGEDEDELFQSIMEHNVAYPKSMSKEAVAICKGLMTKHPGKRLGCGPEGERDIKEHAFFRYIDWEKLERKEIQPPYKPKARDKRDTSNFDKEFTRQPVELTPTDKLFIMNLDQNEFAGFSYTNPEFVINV

[12] = system: HeLa; experiment: Induction of mitotic arrest in human nocodazole-arrested HeLa cells assessed as delocalization of BUB1 at 1 micromol/L in presence of MG132; format: functional, cell-based; details: dose 1.0 µmol/L
[13] = Antiproliferative activity against human NPA cells assessed as inhibition of cell growth incubated for 72 hrs by celltiter-glo assay; format: functional, cell-based
[14] = Inhibition of recombinant ABL (unknown origin); design: species or system Homo sapiens
[15] = system: T47D; experiment: Antiproliferative activity against human T47D cells assessed as inhibition of cell growth incubated for 72 hrs by celltiter-glo assay; format: functional, cell-based
[16] = system: Jurkat; experiment: Antiproliferative activity against human Jurkat cells assessed as inhibition of cell growth incubated for 72 hrs by celltiter-glo assay; format: functional, cell-based
[17] = target: Mitotic checkpoint serine/threonine-protein kinase BUB1 (Homo sapiens, UniProt O43683); experiment: Inhibition of recombinant BUB1 (unknown origin)
Sequence of Mitotic checkpoint serine/threonine-protein kinase BUB1 (O43683 whole entry): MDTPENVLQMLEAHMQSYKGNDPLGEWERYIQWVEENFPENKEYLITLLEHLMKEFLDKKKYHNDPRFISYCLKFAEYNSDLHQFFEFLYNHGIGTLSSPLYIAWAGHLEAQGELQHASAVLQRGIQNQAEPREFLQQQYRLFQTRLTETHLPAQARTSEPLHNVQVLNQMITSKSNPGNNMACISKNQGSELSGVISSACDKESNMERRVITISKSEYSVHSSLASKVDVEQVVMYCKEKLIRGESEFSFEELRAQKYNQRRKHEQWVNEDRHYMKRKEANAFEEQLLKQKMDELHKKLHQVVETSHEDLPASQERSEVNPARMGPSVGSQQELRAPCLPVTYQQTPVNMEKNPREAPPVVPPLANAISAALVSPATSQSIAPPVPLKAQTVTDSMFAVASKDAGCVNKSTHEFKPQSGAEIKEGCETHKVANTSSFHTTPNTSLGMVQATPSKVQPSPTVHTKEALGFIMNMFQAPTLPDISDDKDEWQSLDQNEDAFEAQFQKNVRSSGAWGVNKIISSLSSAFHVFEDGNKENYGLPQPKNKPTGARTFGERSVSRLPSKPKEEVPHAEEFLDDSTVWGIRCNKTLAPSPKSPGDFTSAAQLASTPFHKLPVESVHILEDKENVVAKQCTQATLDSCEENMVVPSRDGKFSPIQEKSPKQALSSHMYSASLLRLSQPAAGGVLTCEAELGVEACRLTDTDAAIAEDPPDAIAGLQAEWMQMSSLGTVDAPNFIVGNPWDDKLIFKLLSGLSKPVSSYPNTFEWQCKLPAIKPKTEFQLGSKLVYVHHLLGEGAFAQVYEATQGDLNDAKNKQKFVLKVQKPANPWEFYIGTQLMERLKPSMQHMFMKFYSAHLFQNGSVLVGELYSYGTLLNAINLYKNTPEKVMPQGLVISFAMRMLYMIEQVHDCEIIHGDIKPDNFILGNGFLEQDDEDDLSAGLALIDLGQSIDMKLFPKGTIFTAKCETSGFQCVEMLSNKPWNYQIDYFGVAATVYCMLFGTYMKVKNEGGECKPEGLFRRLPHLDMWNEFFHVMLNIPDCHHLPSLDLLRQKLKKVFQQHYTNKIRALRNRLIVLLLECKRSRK

[18] = Inhibition of recombinant AUR2 (unknown origin); design: species or system Homo sapiens
[19] = Oral bioavailability in Athymic nu-nu mouse at 100 mg/kg measured upto 24 hrs by LC-MS/MS analysis; format: ADME, organism-based; details: in vivo
[20] = target: Focal adhesion kinase 1 (Homo sapiens, UniProt Q05397); experiment: Inhibition of recombinant FAK (unknown origin)
Sequence of Focal adhesion kinase 1 (Q05397 whole entry): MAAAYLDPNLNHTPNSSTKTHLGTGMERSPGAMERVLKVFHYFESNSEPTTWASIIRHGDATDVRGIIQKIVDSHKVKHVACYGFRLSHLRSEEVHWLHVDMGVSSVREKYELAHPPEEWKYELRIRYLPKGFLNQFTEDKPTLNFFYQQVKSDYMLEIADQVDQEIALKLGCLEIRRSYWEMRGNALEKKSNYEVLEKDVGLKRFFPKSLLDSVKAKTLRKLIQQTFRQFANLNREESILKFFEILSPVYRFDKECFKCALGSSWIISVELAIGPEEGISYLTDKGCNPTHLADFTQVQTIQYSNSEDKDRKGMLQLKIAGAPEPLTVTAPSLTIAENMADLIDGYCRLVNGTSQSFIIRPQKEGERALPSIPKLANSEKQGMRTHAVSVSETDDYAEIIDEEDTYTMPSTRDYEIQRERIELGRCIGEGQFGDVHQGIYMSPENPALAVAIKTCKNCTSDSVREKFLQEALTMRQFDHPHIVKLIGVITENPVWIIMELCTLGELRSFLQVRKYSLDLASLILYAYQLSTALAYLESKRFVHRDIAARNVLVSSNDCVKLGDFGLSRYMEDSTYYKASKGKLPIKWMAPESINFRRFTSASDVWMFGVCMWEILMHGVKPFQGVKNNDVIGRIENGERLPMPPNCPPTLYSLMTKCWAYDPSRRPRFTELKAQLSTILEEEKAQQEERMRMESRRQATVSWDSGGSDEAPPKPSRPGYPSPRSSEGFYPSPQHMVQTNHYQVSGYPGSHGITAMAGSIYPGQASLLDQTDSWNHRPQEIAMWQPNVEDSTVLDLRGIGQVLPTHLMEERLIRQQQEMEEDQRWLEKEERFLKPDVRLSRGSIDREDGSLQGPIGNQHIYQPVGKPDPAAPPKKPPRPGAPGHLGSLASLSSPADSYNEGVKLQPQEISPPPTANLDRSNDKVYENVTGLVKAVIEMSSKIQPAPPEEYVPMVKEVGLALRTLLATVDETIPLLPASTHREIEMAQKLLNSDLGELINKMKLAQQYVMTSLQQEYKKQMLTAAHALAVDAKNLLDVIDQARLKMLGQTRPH

[21] = system: A2780; experiment: Cell cycle arrest in human A2780 cells assessed as accumulation of cells at G2/M phase at 0.2 to 1 micromol/L incubated for 24 hrs by FACS/PI staining based flow cytometric analysis; format: functional; details: dose 0.2-1 µmol/L
[22] = system: RERF-LC-AI; experiment: Antiproliferative activity against human RERF-LC-AI cells assessed as inhibition of cell growth incubated for 72 hrs by celltiter-glo assay; format: functional, cell-based
[23] = system: SR; experiment: Antiproliferative activity against human SR cells assessed as inhibition of cell growth incubated for 72 hrs by celltiter-glo assay; format: functional, cell-based
[24] = target: Cyclin-dependent kinase 4/cyclin D1 (Homo sapiens, UniProt P11802); experiment: Inhibition of recombinant CDK4/CYCD1 (unknown origin); format: protein-complex assay
Sequence of Cyclin-dependent kinase 4/cyclin D1 (P11802 whole entry): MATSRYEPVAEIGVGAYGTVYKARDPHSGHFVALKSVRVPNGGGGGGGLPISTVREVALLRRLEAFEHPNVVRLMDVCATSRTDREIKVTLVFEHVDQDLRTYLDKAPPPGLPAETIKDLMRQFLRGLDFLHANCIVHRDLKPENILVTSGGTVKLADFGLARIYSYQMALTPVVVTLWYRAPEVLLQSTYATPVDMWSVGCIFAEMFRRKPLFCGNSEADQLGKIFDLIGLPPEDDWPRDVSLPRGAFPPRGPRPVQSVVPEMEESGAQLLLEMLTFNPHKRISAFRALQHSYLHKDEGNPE
Sequence of Cyclin-dependent kinase 4/cyclin D1 (P24385 whole entry, further chain): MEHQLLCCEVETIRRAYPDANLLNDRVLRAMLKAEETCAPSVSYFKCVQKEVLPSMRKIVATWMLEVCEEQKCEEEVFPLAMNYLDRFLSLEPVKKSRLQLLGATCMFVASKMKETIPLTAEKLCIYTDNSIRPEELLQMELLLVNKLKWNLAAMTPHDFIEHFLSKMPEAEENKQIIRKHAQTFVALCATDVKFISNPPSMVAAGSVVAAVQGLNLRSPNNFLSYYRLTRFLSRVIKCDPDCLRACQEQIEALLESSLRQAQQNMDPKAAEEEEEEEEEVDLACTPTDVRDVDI

[25] = target: Mitogen-activated protein kinase 1 (Homo sapiens, UniProt P28482); experiment: Inhibition of recombinant ERK2 (unknown origin)
[26] = system: KM12; experiment: Antiproliferative activity against human KM12 cells assessed as inhibition of cell growth incubated for 72 hrs by celltiter-glo assay; format: functional, cell-based; details: KM12, 72 h
[27] = system: SK-LU-1; experiment: Antiproliferative activity against human SK-LU-1 cells assessed as inhibition of cell growth incubated for 72 hrs by celltiter-glo assay; format: functional, cell-based; details: SK-LU-1, 72 h
[28] = system: BT-474; experiment: Antiproliferative activity against human BT-474 cells assessed as inhibition of cell growth incubated for 72 hrs by celltiter-glo assay; format: functional, cell-based; details: BT-474, 72 h
[29] = system: A2780; experiment: Cell cycle arrest in human A2780 cells assessed as accumulation of cells at G1 phase at 0.2 to 1 micromol/L incubated for 24 hrs by FACS/PI staining based flow cytometric analysis; format: functional; details: dose 0.2-1 µmol/L
[30] = system: UACC-62; experiment: Antiproliferative activity against human UACC-62 cells assessed as inhibition of cell growth incubated for 72 hrs by celltiter-glo assay; format: functional, cell-based; details: UACC-62, 72 h
[31] = system: A-375; experiment: Antitumor activity against human A-375 cells xenografted in Athymic nu-nu nude mouse assessed as tumor growth inhibition at 100 mg/kg, po measured after 10 days; format: functional; details: A-375, 240 h, time 10 day, read-out: TGI
[32] = system: HOP-92; experiment: Antiproliferative activity against human HOP-92 cells assessed as inhibition of cell growth incubated for 72 hrs by celltiter-glo assay; format: functional, cell-based; details: HOP-92, 72 h
[33] = system: U2OS; experiment: Induction of mitotic arrest in human U2OS cells expressing YFP alpha-tubulin assessed as chromosome misalignment in anaphase incubated for 1 hr by DAPI staining based confocal microscopic analysis; format: functional, cell-based
[34] = system: HCC78; experiment: Antiproliferative activity against human HCC78 cells assessed as inhibition of cell growth incubated for 72 hrs by celltiter-glo assay; format: functional, cell-based; details: HCC78, 72 h
[35] = system: NCI-H226; experiment: Antiproliferative activity against human NCI-H226 cells assessed as inhibition of cell growth incubated for 72 hrs by celltiter-glo assay; format: functional, cell-based; details: NCI-H226, 72 h
[36] = system: SN12C; experiment: Antiproliferative activity against human SN12C cells assessed as inhibition of cell growth incubated for 72 hrs by celltiter-glo assay; format: functional, cell-based
[37] = system: HeLa; experiment: Induction of mitotic arrest in human nocodazole-arrested HeLa cells assessed as delocalization of MAD1 at 1 micromol/L in presence of MG132; format: functional, cell-based; details: dose 1.0 µmol/L
[38] = system: U2OS; experiment: Induction of mitotic arrest in human U2OS cells expressing YFP-alpha-tubulin assessed as reduction in mitotic cells at 1 micromol/L by time-lapse microscopic analysis; format: functional, cell-based; details: dose 1.0 µmol/L
[39] = system: LS174T; experiment: Antiproliferative activity against human LS174T cells assessed as inhibition of cell growth incubated for 72 hrs by celltiter-glo assay; format: functional, cell-based
[40] = AUC in Athymic nu-nu mouse at 100 mg/kg, po measured upto 24 hrs by LC-MS/MS analysis; format: ADME, organism-based; details: in vivo
[41] = system: OVCAR-3; experiment: Antiproliferative activity against human OVCAR-3 cells assessed as inhibition of cell growth incubated for 72 hrs by celltiter-glo assay; format: functional, cell-based; details: OVCAR-3, 72 h
[42] = system: KARPAS-299; experiment: Antiproliferative activity against human KARPAS-299 cells assessed as inhibition of cell growth incubated for 72 hrs by celltiter-glo assay; format: functional, cell-based; details: KARPAS-299, 72 h
[43] = system: COLO 320; experiment: Antiproliferative activity against human COLO 320 cells assessed as inhibition of cell growth incubated for 72 hrs by celltiter-glo assay; format: functional, cell-based; details: COLO 320, 72 h

IC50 [1]: 1870 nM
IC50 [2]: > 10000 nM
Vd [3]: 5.45 L/kg
IC50 [4]: > 10000 nM
IC50 [5]: 1960 nM
IC50 [6]: < 10000 nM
IC50 [7]: 6460 nM
IC50 [8]: 1220 nM
IC50 [9]: > 10000 nM
IC50 [10]: 1040 nM
IC50 [11]: > 10000 nM
IC50 [14]: > 10000 nM
IC50 [15]: 2860 nM
IC50 [16]: 3610 nM
IC50 [17]: > 10000 nM
IC50 [18]: > 10000 nM
bioavailability [19]: 22.6%
IC50 [20]: > 10000 nM
IC50 [24]: > 10000 nM
IC50 [25]: > 10000 nM
IC50 [27]: 5000 nM
IC50 [28]: 1160 nM
IC50 [34]: 10000 nM
IC50 [35]: 2010 nM
AUC at 24 h [40]: 50.7 µM·h
IC50 [41]: 6200 nM
IC50 [42]: 3530 nM
IC50 [43]: 1280 nM
Structure (SMILES): CCc1cccc(CC)c1NC(=O)c1nn(C)c2c1CCc1cnc(Nc3ccc(C(=O)NC4CCN(C)CC4)cc3OC(F)(F)F)nc1-2
Activity [12]: Active
IC50 [13]: 2640 nM
Activity [21]: Active
IC50 [22]: 2070 nM
IC50 [23]: 6960 nM
IC50 [26]: 586 nM
Activity [29]: Active
IC50 [30]: 4750 nM
inhibition in vivo at 100 mg/kg [31]: 43%
IC50 [32]: 2180 nM
Activity [33]: Active
IC50 [36]: 1220 nM
Activity [37]: Active
Activity [38]: Active
IC50 [39]: 1940 nM
